Source: PubChem BioAssay AID328 (DTP/NCI, 2004)
Where “and” joins values, the source holds several entries; their conditions need not be identical. Equal entries are not always repeated. Toxic doses and inconclusive results are not listed.

System: BDF1 mice, P388 leukemia ip, median survival T/C
Assay: NCI In Vivo Anticancer Drug Screen. Data for tumor model P388 Leukemia (intraperitoneal) in B6D2F1 (BDF1) mice
Conditions: endpoint: median survival time, higher = longer survival
Method in brief: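 Mice carrying the transplantable tumour receive compound or vehicle. Survival is followed in each arm, and the treated measure is divided by the vehicle measure.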

[1] = dose: 12.5 mg/kg/injection, schedule: Q01DX009 (ip), vehicle: saline with Tween-80
[2] = dose: 25.0 mg/kg/injection, schedule: Q01DX009 (ip), vehicle: saline with Tween-80
[3] = dose: 50.0 mg/kg/injection, schedule: Q01DX009 (ip), vehicle: saline with Tween-80
[4] = dose: 100.0 mg/kg/injection, schedule: Q01DX009 (ip), vehicle: Klucel (hydroxypropylcellulose) (HPC)
[5] = dose: 100.0 mg/kg/injection, schedule: Q01DX009 (ip), vehicle: saline with Tween-80
[6] = dose: 200.0 mg/kg/injection, schedule: Q04DX003 (ip), vehicle: Klucel (hydroxypropylcellulose) (HPC)
[7] = dose: 100.0 mg/kg/injection, schedule: Q04DX003 (ip), vehicle: Klucel (hydroxypropylcellulose) (HPC)
[8] = dose: 400.0 mg/kg/injection, schedule: Q04DX003 (ip), vehicle: Klucel (hydroxypropylcellulose) (HPC)

COC1C(O)C(C)OC(OC2C(Oc3cccc4c(O)c5c(=O)oc6ccc(C)c7c(=O)oc(c34)c5c67)OC(C)C(O)C2O)C1O (stereo not given)
T/C (dose: 0.39 mg/kg/injection, schedule: Q01DX009 (ip), vehicle: other): 98 % of control and 121 % of control | T/C (dose: 0.39 mg/kg/injection, schedule: Q01DX009 (oral), vehicle: Klucel (hydroxypropylcellulose) (HPC)): 110 % of control | T/C (dose: 0.78 mg/kg/injection, schedule: Q01DX009 (ip), vehicle: other): 104 % of control | T/C (dose: 0.78 mg/kg/injection, schedule: Q01DX009 (oral), vehicle: Klucel (hydroxypropylcellulose) (HPC)): 100 % of control | T/C (dose: 1.56 mg/kg/injection, schedule: Q01DX009 (ip), vehicle: other): 106 % of control | T/C (dose: 1.56 mg/kg/injection, schedule: Q01DX009 (oral), vehicle: Klucel (hydroxypropylcellulose) (HPC)): 98 % of control and 104 % of control | T/C (dose: 3.12 mg/kg/injection, schedule: Q01DX009 (ip), vehicle: Klucel (hydroxypropylcellulose) (HPC)): 159 % of control | T/C (dose: 3.12 mg/kg/injection, schedule: Q01DX009 (ip), vehicle: other): 159 % of control | T/C (dose: 3.12 mg/kg/injection, schedule: Q01DX009 (oral), vehicle: Klucel (hydroxypropylcellulose) (HPC)): 109 % of control and 110 % of control | T/C (dose: 3.13 mg/kg/injection, schedule: Q01DX009 (ip), vehicle: saline with Tween-80): 162 % of control | T/C (dose: 6.25 mg/kg/injection, schedule: Q01DX009 (ip), vehicle: Klucel (hydroxypropylcellulose) (HPC)): 173 % of control | T/C (dose: 6.25 mg/kg/injection, schedule: Q01DX009 (ip), vehicle: other): 200 % of control | T/C (dose: 6.25 mg/kg/injection, schedule: Q01DX009 (ip), vehicle: saline with Tween-80): 217 % of control | T/C (dose: 6.25 mg/kg/injection, schedule: Q01DX009 (oral), vehicle: Klucel (hydroxypropylcellulose) (HPC)): 101 % of control and 106 % of control | T/C (dose: 8.0 mg/kg/injection, schedule: Q04DX003 (ip), vehicle: saline with Tween-80): 150 % of control | T/C (dose: 12.5 mg/kg/injection, schedule: Q01DX009 (ip), vehicle: Klucel (hydroxypropylcellulose) (HPC)): 209 % of control | T/C (dose: 12.5 mg/kg/injection, schedule: Q01DX009 (ip), vehicle: other): 156 % of control and 165 % of control and 205 % of control | T/C [1]: 190 % of control and 199 % of control | T/C (dose: 12.5 mg/kg/injection, schedule: Q01DX009 (oral), vehicle: Klucel (hydroxypropylcellulose) (HPC)): 103 % of control and 105 % of control | T/C (dose: 16.0 mg/kg/injection, schedule: Q04DX003 (ip), vehicle: saline with Tween-80): 173 % of control | T/C (dose: 25.0 mg/kg/injection, schedule: Q01DX009 (ip), vehicle: Klucel (hydroxypropylcellulose) (HPC)): 221 % of control | T/C (dose: 25.0 mg/kg/injection, schedule: Q01DX009 (ip), vehicle: other): 167 % of control and 215 % of control | T/C [2]: 236 % of control and 210 % of control | T/C (dose: 25.0 mg/kg/injection, schedule: Q01DX009 (oral), vehicle: Klucel (hydroxypropylcellulose) (HPC)): 100 % of control and 105 % of control | T/C (dose: 32.0 mg/kg/injection, schedule: Q04DX003 (ip), vehicle: saline with Tween-80): 172 % of control | T/C (dose: 43.2 mg/kg/injection, schedule: Q04DX003 (ip), vehicle: Klucel (hydroxypropylcellulose) (HPC)): 170 % of control | T/C (dose: 43.2 mg/kg/injection, schedule: Q04DX003 (ip), vehicle: acid diluted with saline): 153 % of control | T/C (dose: 50.0 mg/kg/injection, schedule: Q01DX009 (ip), vehicle: Klucel (hydroxypropylcellulose) (HPC)): 221 % of control | T/C (dose: 50.0 mg/kg/injection, schedule: Q01DX009 (ip), vehicle: other): 231 % of control and 193 % of control | T/C [3]: 190 % of control | T/C (dose: 50.0 mg/kg/injection, schedule: Q01DX009 (oral), vehicle: Klucel (hydroxypropylcellulose) (HPC)): 103 % of control and 111 % of control | T/C (dose: 64.0 mg/kg/injection, schedule: Q04DX003 (ip), vehicle: saline with Tween-80): 175 % of control | T/C (dose: 72.0 mg/kg/injection, schedule: Q04DX003 (ip), vehicle: Klucel (hydroxypropylcellulose) (HPC)): 173 % of control | T/C (dose: 72.0 mg/kg/injection, schedule: Q04DX003 (ip), vehicle: acid diluted with saline): 173 % of control | T/C [4]: 170 % of control | T/C [5]: 190 % of control and 220 % of control | T/C (dose: 100.0 mg/kg/injection, schedule: Q01DX009 (oral), vehicle: Klucel (hydroxypropylcellulose) (HPC)): 104 % of control | T/C (dose: 120.0 mg/kg/injection, schedule: Q04DX003 (ip), vehicle: Klucel (hydroxypropylcellulose) (HPC)): 184 % of control | T/C (dose: 120.0 mg/kg/injection, schedule: Q04DX003 (ip), vehicle: acid diluted with saline): 180 % of control | T/C (dose: 128.0 mg/kg/injection, schedule: Q04DX003 (ip), vehicle: saline with Tween-80): 182 % of control | T/C (dose: 200.0 mg/kg/injection, schedule: Q01DX009 (oral), vehicle: Klucel (hydroxypropylcellulose) (HPC)): 105 % of control | T/C [6]: 175 % of control | T/C (dose: 200.0 mg/kg/injection, schedule: Q04DX003 (ip), vehicle: acid diluted with saline): 173 % of control

CN(C)c1ccc(N(C)C)c(C(O)(c2ccccc2)c2ccccc2)c1
T/C [1]: 95 % of control | T/C [2]: 93 % of control | T/C [3]: 95 % of control

COc1ccccc1-n1c(=O)c(N=Nc2ccccc2)c(O)n(-c2ccccc2C)c1=S
T/C (dose: 100.0 mg/kg/injection, schedule: Q01DX001 (ip), vehicle: saline with Tween-80): 95 % of control | T/C (dose: 200.0 mg/kg/injection, schedule: Q01DX001 (ip), vehicle: saline with Tween-80): 95 % of control

Nc1ccc(Oc2ccc(Cl)cc2)c(Cl)c1
T/C (dose: 100.0 mg/kg/injection, schedule: Q04DX003 (ip), vehicle: saline with Tween-80): 100 % of control | T/C (dose: 200.0 mg/kg/injection, schedule: Q04DX003 (ip), vehicle: saline with Tween-80): 95 % of control | T/C (dose: 400.0 mg/kg/injection, schedule: Q04DX003 (ip), vehicle: saline with Tween-80): 104 % of control

C[Se]c1ncnc2c(C3OC(CO)C(O)C3O)[nH]nc12 (stereo not given)
T/C (dose: 0.5 mg/kg/injection, schedule: Q01DX009 (ip), vehicle: saline with Tween-80): 118 % of control | T/C (dose: 1.0 mg/kg/injection, schedule: Q01DX009 (ip), vehicle: saline with Tween-80): 90 % of control | T/C (dose: 2.0 mg/kg/injection, schedule: Q01DX009 (ip), vehicle: saline with Tween-80): 109 % of control | T/C (dose: 4.0 mg/kg/injection, schedule: Q01DX009 (ip), vehicle: saline with Tween-80): 100 % of control | T/C (dose: 6.25 mg/kg/injection, schedule: Q01DX009 (ip), vehicle: saline): 114 % of control | T/C (dose: 8.0 mg/kg/injection, schedule: Q01DX009 (ip), vehicle: saline with Tween-80): 90 % of control | T/C (dose: 12.5 mg/kg/injection, schedule: Q01DX009 (ip), vehicle: saline): 98 % of control | T/C (dose: 12.5 mg/kg/injection, schedule: Q04DX003 (ip), vehicle: saline): 98 % of control | T/C (dose: 25.0 mg/kg/injection, schedule: Q04DX003 (ip), vehicle: saline): 92 % of control

[I][Hg][CH2]C1OCCOC1[CH2][Hg][I] (stereo not given)
T/C [5]: 116 % of control | T/C (dose: 200.0 mg/kg/injection, schedule: Q01DX009 (ip), vehicle: saline with Tween-80): 116 % of control

CCCCCCCC(=O)Nc1ccc(C)cc1C
T/C (dose: 100.0 mg/kg/injection, schedule: Q04DX003 (ip), vehicle: other): 95 % of control | T/C (dose: 200.0 mg/kg/injection, schedule: Q04DX003 (ip), vehicle: other): 104 % of control | T/C (dose: 400.0 mg/kg/injection, schedule: Q04DX003 (ip), vehicle: other): 95 % of control

C#CC1(O)CC[C@H]2[C@@H]3CCC4=CCCC[C@@H]4[C@H]3CC[C@@]21C (stereo not given in full)
T/C (dose: 100.0 mg/kg/injection, schedule: Q01DX009 (ip), vehicle: saline): 95 % of control | T/C (dose: 100.0 mg/kg/injection, schedule: Q04DX003 (ip), vehicle: alcohol): 100 % of control | T/C (dose: 200.0 mg/kg/injection, schedule: Q01DX009 (ip), vehicle: saline): 90 % of control | T/C (dose: 200.0 mg/kg/injection, schedule: Q04DX003 (ip), vehicle: alcohol): 95 % of control | T/C (dose: 400.0 mg/kg/injection, schedule: Q01DX009 (ip), vehicle: saline): 86 % of control | T/C (dose: 400.0 mg/kg/injection, schedule: Q04DX003 (ip), vehicle: alcohol): 105 % of control

O=S(=O)(N=C1C(Cl)=C(Cl)C(=NS(=O)(=O)c2ccccc2)C(Cl)=C1Cl)c1ccccc1
T/C [4]: 104 % of control | T/C [7]: 100 % of control | T/C (dose: 200.0 mg/kg/injection, schedule: Q01DX009 (ip), vehicle: Klucel (hydroxypropylcellulose) (HPC)): 86 % of control | T/C [6]: 100 % of control | T/C (dose: 400.0 mg/kg/injection, schedule: Q01DX009 (ip), vehicle: Klucel (hydroxypropylcellulose) (HPC)): 100 % of control | T/C [8]: 100 % of control

COc1ccc(/C=C/C(=O)c2ccc(OC)cc2)cc1
T/C [7]: 100 % of control | T/C [6]: 104 % of control | T/C [8]: 95 % of control
